# Molecular target: T1, MeCP2-TBL1 interaction (MeCP2-SmBiT / TBL1-LgBiT) (Mus musculus, UniProt Q9QXE7)
# T1 construct: expressed in transfected cells; crude lysate used as a cell-free assay
# T1 sequence (Q9QXE7 166-527): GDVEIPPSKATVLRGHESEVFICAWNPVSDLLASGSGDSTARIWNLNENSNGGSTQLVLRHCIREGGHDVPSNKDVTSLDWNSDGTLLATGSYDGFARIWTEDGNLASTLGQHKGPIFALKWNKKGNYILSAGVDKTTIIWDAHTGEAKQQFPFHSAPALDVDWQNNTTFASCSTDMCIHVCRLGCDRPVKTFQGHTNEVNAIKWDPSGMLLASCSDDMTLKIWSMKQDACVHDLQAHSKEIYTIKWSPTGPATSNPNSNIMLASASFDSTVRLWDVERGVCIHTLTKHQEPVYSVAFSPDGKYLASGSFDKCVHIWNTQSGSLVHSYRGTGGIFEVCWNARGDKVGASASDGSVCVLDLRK
# Assay: MeCP2-TBL1 NanoLuc luciferase complementation assay (cell-free, extracts of transfected HEK293 cells);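 note: each compound tested at 20 µM final concentration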
# Format: binding, human
# Conditions: primary screen of Asinex library, single well per compound
# Outline: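 Cell-free split NanoLuc: lysate of HEK293 cells co-expressing the MeCP2 C-terminal half-SmBiT and TBL1 WD domain-LgBiT, mixed 1:1 with furimazine. After 30 min at room temperature, luminescence was plate-median normalized.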
row,Inhibition percent,Structure (SMILES)
1,-2.84,O=C(c1ccc(Cc2ccc(F)cc2)nc1)N1CCCC2(CC1)CN(c1ccccc1)C(=O)O2 (centres unmarked) [BDH_32295955]
2,-0.22,O=C(c1ccc(Cc2cccc(F)c2)nc1)N1CCCC2(CC1)CN(c1ccccc1)C(=O)O2 (centres unmarked) [BDH_32296010]
3,-4.87,CC(C)(NC(=O)Cc1ccccc1)C(=O)N1CCCC(Cc2cccc3ncccc23)C1 (centres unmarked) [BDH_32327552]
4,-2.43,CC(C)(NC(=O)Cc1ccccc1)C(=O)N1CCCC(Cc2cccn3ccnc23)CC1 (centres unmarked) [BDH_32327598]
5,-2.64,CC(C)(NC(=O)CCc1ccccc1)C(=O)N1CCC(Cc2ccc3ncccc3c2)CC1 [BDH_32328019]
6,-0.56,Cc1nccn1Cc1ccccc1C(=O)N1CCCC(Cc2cccc3ccncc23)CC1 (centres unmarked) [BDH_32339307]
7,5.72,C[C@]12C[C@@H](Cc3ccccc3)N(C(=O)c3cccc(Cn4ccnc4)c3)[C@H]1CCCC(=O)N2 [BDH_32339936]
8,1.41,O=C(N1CCC(Cc2ccc3ncccc3c2)CC1)C1(c2ccccc2)CCOCC1 [BDH_32341682]
9,6.68,O=C(N1CCC(Cc2cccc3cccnc23)CC1)C1(c2ccccc2)CCOCC1 [BDH_32341683]
10,-2.98,COc1ccc(C(=O)N2CCCC(Cc3ccccn3)C2)cc1NCc1cccnc1 (centres unmarked) [BDH_32341951]
11,1.12,Cc1ccc(C2(C(=O)N3CCC4(CC3)CC(Oc3ccccc3)CO4)CCOCC2)cc1 (centres unmarked) [BDH_32343765]
12,1.00,CN(C)c1cncc(C2CCCN2C(=O)c2ccccc2OCCN2CCOCC2)n1 (centres unmarked) [BDH_32345043]
13,-1.36,CN1CCN(c2cc(C(=O)N3CCCCC3CCNC(=O)c3ccccc3)ccn2)CC1 (centres unmarked) [BDH_32345153]
14,-0.90,O=C1CCCC[C@]2(CN(Cc3ccnc(N4CCCCC4)n3)C[C@H]2c2ccccc2)N1 [BDH_32353018]
15,-2.23,CC(C)(NC(=O)COc1ccccc1)C(=O)N1CCC(Cc2cccc3ncccc23)CC1 [BDH_32354908]
16,3.35,Cc1nonc1COc1ccccc1C(=O)N1C2CCC1CC(Cc1cnc3ccccc3c1)C2 (centres unmarked) [BDH_32356179]
17,-1.24,Cc1cc(C)n(-c2cccc(C(=O)N3CCCC(c4cncc(Oc5ccccc5)n4)C3)c2)n1 (centres unmarked) [BDH_32356802]
18,3.03,O=C(c1cccc(Nc2ncccn2)c1)N1C2CCC1CC(Cc1ccc3ccncc3c1)C2 (centres unmarked) [BDH_32356948]
19,1.61,O=C1OC2(CCCN(Cc3ccccc3OCc3ccccn3)CC2)CN1c1ccc(F)cc1 (centres unmarked) [BDH_32357695]
20,-2.39,O=C1CCCN1CCOc1cccc(C(=O)N2CCCC(Cc3ccnc4ccccc34)CC2)c1 (centres unmarked) [BDH_32358595]

# Same assay, conditions: primary screen of the Asinex library, sheet "Sargen output Asinex library", one well per compound
row,Inhibition percent [%],Structure (SMILES)
1,0.62,O=C1OC2(CCN(C(=O)C3(c4ccccc4)CCCC3)C2)CN1Cc1ccc(F)cc1 (centres unmarked) [BDH_32289921]
2,-0.57,COc1ccccc1Cc1ccc(C(=O)N2CCCC3(CC2)CN(c2ccccc2)C(=O)O3)cn1 (centres unmarked) [BDH_32296020]
3,-0.70,O=C1COC2(CCCN(C(=O)c3cccc4cccnc34)CC2)CN1CCc1ccccc1 (centres unmarked) [BDH_32296359]
4,5.07,O=C(c1ccnc(Cc2cccc(F)c2)c1)N1CCC[C@]2(C[C@@H](Oc3ccc(F)cc3)CO2)C1 [BDH_32304392]
5,0.18,CC(C)(NC(=O)c1ccccc1)C(=O)N1C[C@@H](c2ccc(F)cc2)[C@@]2(CCCC(=O)N2)C1 [BDH_32326628]
6,-1.86,CC(C)(NC(=O)c1ccccc1)C(=O)N1C2CCC1CC(Cc1ccc3ccncc3c1)C2 (centres unmarked) [BDH_32326823]
7,-1.39,CN(C)c1cncc(C2CCCN2C(=O)C2(C)CCN(C(=O)c3cccc(F)c3)CC2)n1 (centres unmarked) [BDH_32329258]
8,5.13,Cc1cccc(Oc2cncc(C3CCCN(C(=O)c4ccc(-n5cccn5)nc4)C3)n2)c1 (centres unmarked) [BDH_32330488]
9,-2.98,O=C1OC2(CCCN(C(=O)c3ccc(-n4cccn4)nc3)CC2)CN1Cc1ccccc1 (centres unmarked) [BDH_32330719]
10,15.90,CC(=O)NC(F)(Cc1ccccc1)C(=O)N1CCC(Cc2cccc3cccnc23)CC1 (centres unmarked) [BDH_32336432]
11,-0.91,Cc1nccn1Cc1ccccc1C(=O)N1CCCC(Cc2cccc3cccnc23)C1 (centres unmarked) [BDH_32339247]
12,3.41,Cc1nccn1Cc1ccccc1C(=O)N1CCCC(Cc2cccc3cccnc23)CC1 (centres unmarked) [BDH_32339298]
13,-0.06,O=C(c1cccc(Cn2ccnc2)c1)N1CCCC(c2nccnc2Oc2ccccc2)C1 (centres unmarked) [BDH_32339912]
14,-3.70,Cc1cccc(Oc2cncc(C3CCCN(C(=O)c4cccc(-n5cnnc5)c4)C3)n2)c1 (centres unmarked) [BDH_32340252]
15,-8.70,O=C(c1cccc(-n2cnnc2)c1)N1CCOCC(Cc2cccc3occc23)C1 (centres unmarked) [BDH_32340409]
16,0.32,O=C(c1ccccc1Cn1cccn1)N1CCCC1c1cncc(Cc2cccc(F)c2)n1 (centres unmarked) [BDH_32340865]
17,-1.09,O=C(c1ccccc1CN1CCOCC1)N1CCCC(Cc2cnc3ccccc3c2)CC1 (centres unmarked) [BDH_32342370]
18,5.16,O=C(c1ccccc1CN1CCCC1)N1CCC2(CC1)COC(Cc1cccc(F)c1)C2 (centres unmarked) [BDH_32342523]
19,-2.33,COc1ccc(C2(C(=O)N3CCC(Cc4ccc5ncccc5c4)CC3)CCOCC2)cc1 [BDH_32344075]

row,Inhibition percent [%],Structure (SMILES)
1,3.92,COc1ccc(C2(C(=O)N3CCC(Cc4cccc5cccnc45)CC3)CCOCC2)cc1 [BDH_32344076]
2,-0.41,c1ccc(COc2cccc(CN3CCOCC(Cc4ccc5nccn5n4)C3)c2)nc1 (centres unmarked) [BDH_32351403]
3,-4.25,O=C1CCCC[C@]2(CN(Cc3ccnc(N4CCOCC4)n3)C[C@H]2c2cccc(F)c2)N1 [BDH_32352634]
4,-1.00,O=C(c1ccccc1OCCN1CCOCC1)N1CCCC(Cc2ccnc3ccccc23)CC1 (centres unmarked) [BDH_32353619]
5,1.91,O=C(c1ccccc1CN1CCCC1)N1CCCC(c2cccc(Cc3ccccc3F)n2)C1 (centres unmarked) [BDH_32353816]
6,-0.56,CC(C)(NC(=O)c1cccc(F)c1)C(=O)N1CCC(c2cccc(Cc3ccccc3)n2)CC1 [BDH_32354126]
7,-0.73,Cc1nonc1COc1ccccc1C(=O)N1CCCC(Cc2ccnc3ccccc23)CC1 (centres unmarked) [BDH_32354216]
8,4.81,Cc1nonc1COc1ccccc1C(=O)N1CCCC(Cc2cccc3cccnc23)CC1 (centres unmarked) [BDH_32354219]
9,-4.55,CN1CCC(Cc2cccc(F)c2)(C(=O)N2CCCC(Cc3cccc4ncccc34)C2)CC1 (centres unmarked) [BDH_32354496]
10,-1.74,CN1CCC(Cc2cccc(F)c2)(C(=O)N2CCC(Cc3cccc4cccnc34)CC2)CC1 [BDH_32354499]
11,-1.95,CN1CCC(Cc2ccc(F)cc2)(C(=O)N2CCC(Cc3cccc4cccnc34)CC2)CC1 [BDH_32354505]
12,0.45,O=C(CC1CCN(C(=O)C2(c3ccc(F)cc3)CCCC2)CC1)Nc1ccc2nccnc2c1 [BDH_32356175]
13,-4.31,O=C(NCCC1CCCCN1C(=O)c1ccnc(Oc2cccc(F)c2)c1)c1ccccc1 (centres unmarked) [BDH_32356851]
14,-2.36,CN1CCCC(CCCc2cnccn2)(C(=O)N2CCC(Cc3cccc4cccnc34)CC2)C1 (centres unmarked) [BDH_32356918]
15,0.88,Cc1ccc(Oc2cc(C)nc(C3CCCCN3C(=O)c3ccnc(-c4cnn(C)c4)c3)n2)cc1 (centres unmarked) [BDH_32357088]
16,-2.19,O=C(c1ccccc1OCCN1CCOCC1)N1CCCC(Cc2ccc3ncccc3c2)C1 (centres unmarked) [BDH_32358044]
17,-1.62,Cc1cc(Oc2ccccc2)nc(C2CCN(C(=O)c3ccnc(N4CCN(C)CC4)c3)CC2)n1 [BDH_32358107]
18,1.07,O=C1CCCC[C@]2(CN(Cc3ccccc3OCc3ccccn3)C[C@H]2c2ccc(F)cc2)N1 [BDH_32358404]
19,-12.20,O=C1CCCN1CCOc1cccc(C(=O)N2CCCC(Cc3cnc4ccccc4c3)CC2)c1 (centres unmarked) [BDH_32358596]

# Same assay, conditions: primary screen of the Asinex library, sheet "Sargen output Asinex library", one well per compound, Batch Ref. 1
row,Inhibition percent [%],Structure (SMILES)
1,0.75,O=C(CN1CCc2ccccc2C1)N1CCCC2(CC1)CN(c1cccc(Cl)c1)C(=O)O2 (centres unmarked) [BDH_32295686]
2,1.56,Cn1cc(CC(=O)N2C[C@@H](c3cccc(F)c3)[C@@]3(CCCCC(=O)N3)C2)c2ccccc21 [BDH_32306274]
3,6.01,COc1ccc(C2(C(=O)N3CCCCC3CCNC(=O)c3ccccc3)CCCC2)cc1 (centres unmarked) [BDH_32336950]
4,3.75,O=C(c1ccccc1Cn1ccnc1)N1CCCC(c2cncc(Oc3ccccc3)n2)C1 (centres unmarked) [BDH_32338420]
5,1.21,O=C1CCCC[C@]2(CN(Cc3ccnc(N4CCCCC4)n3)C[C@H]2c2cccc(F)c2)N1 [BDH_32353019]
6,2.11,O=C(c1ccccc1OCCN1CCOCC1)N1CCCC(Cc2cccc3cccnc23)CC1 (centres unmarked) [BDH_32353622]
7,1.54,Cc1noc(C)c1COc1cccc(C(=O)N2CCCC(Cc3cccc4cnccc34)CC2)c1 (centres unmarked) [BDH_32354458]
8,5.62,Cc1nonc1COc1ccccc1C(=O)N1CCCC(Cc2ccc3ccncc3c2)CC1 (centres unmarked) [BDH_32355894]
9,10.27,Cc1ccc(Oc2ncccc2C(=O)N2CCC(c3cccc(Cc4ccccc4)n3)CC2)cn1 [BDH_32356013]
10,0.42,Cc1cccc(Oc2cncc(C3CCCN(C(=O)c4ccnc(N5CCN(C)CC5)c4)C3)n2)c1 (centres unmarked) [BDH_32358106]

# Source: article PMC9995496, “A screen for MeCP2-TBL1 interaction inhibitors using a luminescence-based assay” (Scientific Reports, 2023)
